# Earlier results as cited in patent US8207376B2, “Method for producing amino acid phosphates” (priority 2006, dated 2012).
# Experiments:
# [1] = as reported in JP-A-2006-182753
# [2] = as reported in JP-A-2006-182753; remark: listed apart in the source
# [3] = heating; known property
SMILES,stimulative nature against the skin and tongue [1],permeability through the skin and the like [2],temperature at which it is completely degraded [3] [°C]
NCC(=O)CCC(=O)O.O=P(O)(O)O [δ-aminolevulinic acid phosphate],low stimulative nature against the skin and tongue,excellent,
Cl.NCC(=O)CCC(=O)O [δ-aminolevulinic acid hydrochloride],,,≥ 156
